Assay results taken from patent US6355799B1, “Substituted benzene compounds, process for their preparation, and herbicidal and defoliant compositions containing them” (ISK Americas Incorporated, priority 1997, dated 2002).

Key:
Format in all cases: in vivo
[1] = tested on: redroot pigweed (Amaranthus retroflexus, AMARE); experiment: Pre-emerge test, greenhouse herbicide activity screening; settings: rating scale 0-100, 14 days after application
Method in brief: (§1)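 Sandy loam pots; pre-emerge: sown 1 d pre-spray, surface-watered after, then bottom-watered. Post-emerge: sown 8–21 d before, 2–3 leaf stage, + 0.25% v/v NIS, bottom-watered. Acetone, 187 l/ha track spray, 15–1000 g ai/ha. 0–100 injury score, day 14.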

[2] = tested on: barnyardgrass (Echinochloa crus-galli, ECHCG); experiment: as above; settings: rating scale 0-100, 14 days after application
Method in brief: as §1

[3] = tested on: common ragweed (Ambrosia artemisizfolia L., AMBEL); experiment: as above; settings: rating scale 0-100, 14 days after application
Method in brief: as §1

[4] = tested on: green foxtail (Setaria viridis, SETVI); experiment: as above; settings: rating scale 0-100, 14 days after application
Method in brief: as §1

[5] = tested on: ivyleaf morningglory (Ipomoea hederacea, IPOHE); experiment: as above; settings: rating scale 0-100, 14 days after application
Method in brief: as §1

[6] = tested on: johnsongrass (Sorghum halepense, SORHA); experiment: as above; settings: rating scale 0-100, 14 days after application
Method in brief: as §1

[7] = tested on: lambsquarters (Chenopodium album, CHEAL); experiment: as above; settings: rating scale 0-100, 14 days after application
Method in brief: as §1

[8] = tested on: large crabgrass (Digitaria sanguinalis, DIGSA); experiment: as above; settings: rating scale 0-100, 14 days after application
Method in brief: as §1

[9] = tested on: sicklepod (Cassia obtusifolia, CASOB); experiment: as above; settings: rating scale 0-100, 14 days after application
Method in brief: as §1

[10] = tested on: velvetleaf (Abutilon theophrasti, ABUTH); experiment: as above; settings: rating scale 0-100, 14 days after application
Method in brief: as §1

[11] = tested on: field corn (Zea mays L., var. Dekalb 535, CORN); experiment: Pre-emerge test, crop safety; settings: rating scale 0-100, 14 days after application
Method in brief: (§2)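 Rating: 0–100 visual injury, 14 DAA. Application: acetone, 187 l/ha, 15–1000 g ai/ha, flat-fan track sprayer with nozzle 40–45 cm above soil or canopy. Post-emerge runs used 0.25% v/v surfactant on 2–3 leaf plants.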

[12] = tested on: upland rice (Oryza sp., var. Tebonnet, RICE); experiment: Pre-emerge test, crop safety; settings: rating scale 0-100, 14 days after application
Method in brief: as §2

[13] = tested on: barnyardgrass (Echinochloa crus-galli, ECHCG); experiment: Post-emerge test, greenhouse herbicide activity screening; settings: rating scale 0-100 (0 no damage, 100 complete death), 14 days after application
Method in brief: (§3)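 Plants grown in 10 cm pots of sandy loam mix received acetone-dissolved compounds through a moving flat-fan nozzle. Doses ranged from 15 to 1000 g ai/ha. Pre-emerge pots were seeded one day earlier, post-emerge pots 8–21 days earlier. Fourteen days on, each pot was graded 0–100 for damage.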

[14] = tested on: common ragweed (Ambrosia artemisizfolia L., AMBEL); experiment: as above; settings: rating scale 0-100 (0 no damage, 100 complete death), 14 days after application
Method in brief: as §3

[15] = tested on: green foxtail (Setaria viridis, SETVI); experiment: as above; settings: rating scale 0-100 (0 no damage, 100 complete death), 14 days after application
Method in brief: as §3

[16] = tested on: ivyleaf morningglory (Ipomoea hederacea, IPOHE); experiment: as above; settings: rating scale 0-100 (0 no damage, 100 complete death), 14 days after application
Method in brief: as §3

[17] = tested on: johnsongrass (Sorghum halepense, SORHA); experiment: as above; settings: rating scale 0-100 (0 no damage, 100 complete death), 14 days after application
Method in brief: as §3

[18] = tested on: lambsquarters (Chenopodium album, CHEAL); experiment: as above; settings: rating scale 0-100 (0 no damage, 100 complete death), 14 days after application
Method in brief: as §3

[19] = tested on: large crabgrass (Digitaria sanguinalis, DIGSA); experiment: as above; settings: rating scale 0-100 (0 no damage, 100 complete death), 14 days after application
Method in brief: as §3

[20] = tested on: redroot pigweed (Amaranthus retroflexus, AMARE); experiment: as above; settings: rating scale 0-100 (0 no damage, 100 complete death), 14 days after application
Method in brief: as §3

[21] = tested on: sicklepod (Cassia obtusifolia, CASOB); experiment: as above; settings: rating scale 0-100 (0 no damage, 100 complete death), 14 days after application
Method in brief: as §3

[22] = tested on: velvetleaf (Abutilon theophrasti, ABUTH); experiment: as above; settings: rating scale 0-100 (0 no damage, 100 complete death), 14 days after application
Method in brief: as §3

[23] = tested on: field corn (Zea mays L., var. Dekalb 535, CORN); experiment: Post-emerge test, crop safety; settings: rating scale 0-100 (0 no damage, 100 complete death), 14 days after application
Method in brief: as §1

[24] = tested on: upland rice (Oryza sp., var. Tebonnet, RICE); experiment: Post-emerge test, crop safety; settings: rating scale 0-100 (0 no damage, 100 complete death), 14 days after application
Method in brief: as §1

In the case of CCCOC(=O)C(Cl)Cc1c(OC)c(Cl)cc(F)c1-n1c(=O)cc(C(F)(F)F)n(C)c1=O (single isomer, unassigned) [14-7], the “Pre-emerge herbicidal activity, phytotoxicity rating AMARE” value ([1]; 63 g ai/ha) is reported as 90, the “Pre-emerge herbicidal activity, phytotoxicity rating AMARE” value ([1]; 250 g ai/ha) is reported as 100 and the “Pre-emerge herbicidal activity, phytotoxicity rating ECHCG” value ([2]; 63 g ai/ha) is reported as 0. The “Pre-emerge herbicidal activity, phytotoxicity rating ECHCG” value ([2]; 250 g ai/ha) was 75, the “Pre-emerge herbicidal activity, phytotoxicity rating AMBEL” value ([3]; 63 g ai/ha) was 0 and the “Pre-emerge herbicidal activity, phytotoxicity rating AMBEL” value ([3]; 250 g ai/ha) was 50. The “Pre-emerge herbicidal activity, phytotoxicity rating SETVI” value ([4]; 63 g ai/ha) was 10, the “Pre-emerge herbicidal activity, phytotoxicity rating SETVI” value ([4]; 250 g ai/ha) was 90 and the “Pre-emerge herbicidal activity, phytotoxicity rating IPOHE” value ([5]; 63 g ai/ha) was 0. The “Pre-emerge herbicidal activity, phytotoxicity rating IPOHE” value ([5]; 250 g ai/ha) was 0, the “Pre-emerge herbicidal activity, phytotoxicity rating SORHA” value ([6]; 63 g ai/ha) was 0 and the “Pre-emerge herbicidal activity, phytotoxicity rating SORHA” value ([6]; 250 g ai/ha) was 70. The “Pre-emerge herbicidal activity, phytotoxicity rating CHEAL” value ([7]; 63 g ai/ha) was 40, the “Pre-emerge herbicidal activity, phytotoxicity rating CHEAL” value ([7]; 250 g ai/ha) was 85 and the “Pre-emerge herbicidal activity, phytotoxicity rating DIGSA” value ([8]; 63 g ai/ha) was 90. For the same compound, the “Pre-emerge herbicidal activity, phytotoxicity rating DIGSA” value ([8]; 250 g ai/ha) was 100, the “Pre-emerge herbicidal activity, phytotoxicity rating CASOB” value ([9]; 63 g ai/ha) was 20 and the “Pre-emerge herbicidal activity, phytotoxicity rating CASOB” value ([9]; 250 g ai/ha) was 0. For the same compound, the “Pre-emerge herbicidal activity, phytotoxicity rating ABUTH” value ([10]; 63 g ai/ha) was 100, the “Pre-emerge herbicidal activity, phytotoxicity rating ABUTH” value ([10]; 250 g ai/ha) was 100 and the “Pre-emerge phytotoxicity rating, crop damage CORN” value ([11]; 63 g ai/ha) was 10. The “Pre-emerge phytotoxicity rating, crop damage CORN” value ([11]; 250 g ai/ha) was 90, the “Pre-emerge phytotoxicity rating, crop damage RICE” value ([12]; 63 g ai/ha) was 0 and the “Pre-emerge phytotoxicity rating, crop damage RICE” value ([12]; 250 g ai/ha) was 40. For the same compound, the “Post-emerge Herbicidal Activity, phytotoxicity rating ECHCG” value ([13]; Rate 63 g ai/ha) was 100, the “Post-emerge Herbicidal Activity, phytotoxicity rating ECHCG” value ([13]; Rate 250 g ai/ha) was 100 and the “Post-emerge Herbicidal Activity, phytotoxicity rating AMBEL” value ([14]; Rate 63 g ai/ha) was 50. For the same compound, the “Post-emerge Herbicidal Activity, phytotoxicity rating AMBEL” value ([14]; Rate 250 g ai/ha) was 90, the “Post-emerge Herbicidal Activity, phytotoxicity rating SETVI” value ([15]; Rate 63 g ai/ha) was 60 and the “Post-emerge Herbicidal Activity, phytotoxicity rating SETVI” value ([15]; Rate 250 g ai/ha) was 85. The “Post-emerge Herbicidal Activity, phytotoxicity rating IPOHE” value ([16]; Rate 63 g ai/ha) was 20, the “Post-emerge Herbicidal Activity, phytotoxicity rating IPOHE” value ([16]; Rate 250 g ai/ha) was 60 and the “Post-emerge Herbicidal Activity, phytotoxicity rating SORHA” value ([17]; Rate 63 g ai/ha) was 70. The “Post-emerge Herbicidal Activity, phytotoxicity rating SORHA” value ([17]; Rate 250 g ai/ha) was 90, the “Post-emerge Herbicidal Activity, phytotoxicity rating CHEAL” value ([18]; Rate 63 g ai/ha) was 90 and the “Post-emerge Herbicidal Activity, phytotoxicity rating CHEAL” value ([18]; Rate 250 g ai/ha) was 99. The “Post-emerge Herbicidal Activity, phytotoxicity rating DIGSA” value ([19]; Rate 63 g ai/ha) was 80, the “Post-emerge Herbicidal Activity, phytotoxicity rating DIGSA” value ([19]; Rate 250 g ai/ha) was 100 and the “Post-emerge Herbicidal Activity, phytotoxicity rating AMARE” value ([20]; Rate 63 g ai/ha) was 95. The “Post-emerge Herbicidal Activity, phytotoxicity rating AMARE” value ([20]; Rate 250 g ai/ha) was 100, the “Post-emerge Herbicidal Activity, phytotoxicity rating CASOB” value ([21]; Rate 63 g ai/ha) was 0 and the “Post-emerge Herbicidal Activity, phytotoxicity rating CASOB” value ([21]; Rate 250 g ai/ha) was 20. The “Post-emerge Herbicidal Activity, phytotoxicity rating ABUTH” value ([22]; Rate 63 g ai/ha) was 50, the “Post-emerge Herbicidal Activity, phytotoxicity rating ABUTH” value ([22]; Rate 250 g ai/ha) was 100 and the “Post-emerge phytotoxicity rating CORN (crop damage)” value ([23]; Rate 63 g ai/ha) was 95. The “Post-emerge phytotoxicity rating CORN (crop damage)” value ([23]; Rate 250 g ai/ha) was 100, the “Post-emerge phytotoxicity rating RICE (crop damage)” value ([24]; Rate 63 g ai/ha) was 10 and the “Post-emerge phytotoxicity rating RICE (crop damage)” value ([24]; Rate 250 g ai/ha) was 25.
